Where two headings read alike, the source gives them in different places.
How the values were obtained:
HIF-1α = HIF-1α protein immunoblot in hypoxic cells; format: cell-based, human; settings: for HIF-1α protein expression: 100 nM, 4 hours hypoxia
Procedure: Cell culture and hypoxia treatment: Cells were maintained in DMEM (A375), EMEM (NCTC 2544) or RPMI 1640 (U87MG, U2OS) medium containing 10% fetal calf serum, penicillin (100 U/ml), streptomycin (100 ug/ml), and L-glutamine (2 mM) at 37° C. in 5% CO2/95% air. Cells were passaged two or three times weekly at a ratio between 1:5 and 1:10. Hypoxic exposure was in BBL™ GasPak pouch™ System (Becton Dickinson) that reduce oxygen concentration of less than 2% within 2 hours of incubation at 35° C.
Cells were harvested and washed with ice-cold PBS containing 1 mM sodium orthovanadate, AEBSF 104 mM, aprotinin 0.08 mM, leupeptin 2 mM, bestatin 4 mM, pepstatin A 1.5 mM, E-64 1.4 mM. Cells were then lysed in Triton lysis buffer. The protein concentration was determined using BCA protein assay kit (Pierce). […] The gel was then electroblotted onto a nitrocellulose membrane. Membranes were blocked with 5% nonfat dry milk in PBS containing 0.1% Tween-20 and incubated with antibodies against HIF-1α (1:250 dilution) and HIF-1β (1:1000 dilution) in 5% nonfat dry milk in PBS/0.1% Tween-20 overnight at 4° C. Aliquots of total protein sample (50 ug) were analyzed using antibodies specific for phosphorylated (Thr183/Tyr185) or total p44/p42 MAPK (1:5000 dilution), phosphorylated (Thr180/Tyr182) or total p38 MAPK (1:1000 dilution) and for A3 receptor (1 µg/ml dilution). Filters were washed and incubated for 1 hour at room temperature with peroxidase-conjugated secondary antibodies against mouse and rabbit IgG (1:2000 dilution). […] The membranes were then stripped and reprobed with tubulin (1:250) to ensure equal protein loading.
U0126 was used at 10 and 30 uM as inhibitor of MEK-1 and MEK-2 to prevent p44 and p42 MAPK activation. SB202190 was used at 1 and 10 uM as inhibitor of p38 MAPK.
Densitometry analysis: The intensity of each band in immunoblot assay was quantified using molecular analyst/PC densitometry software (Bio-Rad). […] The data were presented as the mean±S.E., and analyzed by the Student's test.

p44/p42 MAPK = p44/p42 MAPK phosphorylation immunoblot, A375 cells in hypoxia; format: cell-based, human; settings: 4 hours hypoxia, nanomolar concentrations, maximum at 100 nM
Procedure: (§1) Cells were harvested and washed with ice-cold PBS containing 1 mM sodium orthovanadate, AEBSF 104 mM, aprotinin 0.08 mM, leupeptin 2 mM, bestatin 4 mM, pepstatin A 1.5 mM, E-64 1.4 mM. Cells were then lysed in Triton lysis buffer. The protein concentration was determined using BCA protein assay kit (Pierce). Equivalent amounts of protein (35 ug) were subjected to electrophoresis on 7.5% sodium dodecyl sulfate-acrylamide gel. The gel was then electroblotted onto a nitrocellulose membrane. Membranes were blocked with 5% nonfat dry milk in PBS containing 0.1% Tween-20 and incubated with antibodies against HIF-1α (1:250 dilution) and HIF-1β (1:1000 dilution) in 5% nonfat dry milk in PBS/0.1% Tween-20 overnight at 4° C. Aliquots of total protein sample (50 ug) were analyzed using antibodies specific for phosphorylated (Thr183/Tyr185) or total p44/p42 MAPK (1:5000 dilution), phosphorylated (Thr180/Tyr182) or total p38 MAPK (1:1000 dilution) and for A3 receptor (1 µg/ml dilution). Filters were washed and incubated for 1 hour at room temperature with peroxidase-conjugated secondary antibodies against mouse and rabbit IgG (1:2000 dilution). […] The membranes were then stripped and reprobed with tubulin (1:250) to ensure equal protein loading. […]

p38 MAPK = p38 MAPK phosphorylation immunoblot, A375 cells in hypoxia; format: cell-based, human; settings: 4 hours hypoxia, 10-1000 nM
Procedure: as §1

A375 cells [1] = experiment: Colony formation assay of A375 cells; format: cell-based, human
Procedure: FIG. 2 illustrates colony formation assay of A375 cells. Cells were treated with different drugs and colonies were counted after 7 days. The values represent the mean±SEM of four independent experiments. […] Analysis was by ANOVA followed by Dunnett's test.
Control plates received the same volume of DMSO alone. After 7 days of growth at 37° C. in humidified atmosphere containing 5% CO2, the cells were fixed with absolute methanol for 5′ and stained with 1/10 Giemsa/phosphate-buffered saline (PBS) staining solution for 10 minutes. Staining solution was removed and colonies of greater than 30 cells were scored as survivors. For each treatment, six individual wells were scored.

HIF-1α mRNA = experiment: Real-Time RT-PCR of HIF-1α mRNA, A375 cells in hypoxia; format: cell-based, human; settings: 4 hours hypoxia
A375 cells [2] = experiment: Flow cytometry cell cycle (G2/M) and apoptosis (sub-G1) analysis, A375; format: cell-based, human; settings: A375; for EC50: Homo sapiens, A-375
Procedure: Flow Cytometry Analysis: A375 and NCTC2544 adherent cells were trypsinized, mixed with floating cells, washed with PBS and permeabilised in 70% (vol/vol) ethanol/PBS solution at 4° C. for at least 24 hours. Jurkat, HeL023 and PBMC cells were centrifuged for 10 minutes at 1000×g. The cell pellet was then resuspended and permeabllised in 70% (vol/vol) ethanol/PBS solution at 4° C. for at least 24 hours. The cells were washed with PBS and the DNA was stained with a PBS solution, containing 20 μg/ml of propidium iodide and 100 μg/ml of RNAse, at room temperature for 30 minutes. Cells were analysed by FACScan (Becton-Dickinson) and the content of DNA was evaluated by the Cell-LISYS program (Becton-Dickinson). Cell distribution among cell cycle phases and apoptotic cells was evaluated as previously described (Secchiero et al., 2001). Briefly, the cell cycle distribution is shown as the percentage of cells containing 2n (G1 phase), 4n (G2 and M phases), 4n>x>2n. DNA amount (S phase) judged by propidium iodide staining. The apoptotic population is the percentage of cells with DNA content lower than 2n.
After 24 hours, cells were collected for flow cytometry analysis. PD 98059 was used at 20 uM as an inhibitor of MEK to prevent MEK-1 activation. […]
EC50 values were obtained by analysing G2/M accumulation dose response curve. ECMAX values were obtained by analysing sub-G1 accumulation dose response curve. Paclitaxel values have units of ng/ml.

Human Melanoma A375 = experiment: MTT growth inhibitory assay, A375; settings: Homo sapiens, A-375, read-out: IC50 (μg/ml) of anti-neoplastic agent used jointly with A3 antagonist, A375 cells
PBMC blasts = experiment: Flow cytometry cell cycle analysis, PBMC blasts; format: cell-based; settings: Homo sapiens, + MRE3008F20 10 μM, read-out: EC50 (G2/M accumulation)
Procedure: For multi-drug resistance testing, A375 and NCTC2544 cells are grown adherently and maintained in DMEM and EMEM medium, respectively, containing 10% fetal calf serum, penicillin (100 U/ml), streptomycin (100 μg/ml), L-glutamine (2 mM) at 37° C. in 5% CO2/95% air. HeL023 and Jurkat were grown in RPMI-1640 medium, containing 10% fetal calf serum, penicillin (100 U/ml), streptomycin (100 μg/ml), L-glutamine (2 mM) at 37° C. in 5% CO2/95% air. Cells are passaged two or three times weekly at a ratio between 1:5 and 1:10. Lymphocytes were isolated from buffy coats kindly provided by the Blood Bank of the University Hospital of Ferrara. Blood donated by healthy volunteers, after informed consent for research was obtained. Lymphocytes were isolated by density gradient centrifugation (Ficoll/Histopaque 1.077 g/ml). […]
Flow Cytometry Analysis: A375 and NCTC2544 adherent cells were trypsinized, mixed with floating cells, washed with PBS and permeabilised in 70% (vol/vol) ethanol/PBS solution at 4° C. for at least 24 hours. […] Cells were analysed by FACScan (Becton-Dickinson) and the content of DNA was evaluated by the Cell-LISYS program (Becton-Dickinson). Cell distribution among cell cycle phases and apoptotic cells was evaluated as previously described (Secchiero et al., 2001). […]

P-gp = P-gp (Homo sapiens, UniProt P08183); format: cell-based; settings: HeL023 cells; 10 μM
Procedure: Rhodamine 123 Efflux Assay: 5×10^5 cells from each subline were loaded with 50 ng/ml of rhodamine 123 for 30 minutes at 37 C in medium. The cells were washed and resuspended in dye-staining agent free medium for 3 hours at 37 C. to allow rhodamine 123 efflux. The cells were then washed twice and the fluorescence of intracellular rhodamine 123 were analysed with Flow cytometer (residual fluorescence FRES). The fluorescence was compared with loaded cells maintained at 4 C. to prevent drug export (maximal fluorescence FMAX). […] Cells from each subline that were not being exposed to rhodamine 123 were used as negative controls.
Rhodamine 123 (Rh123) retention, a P-gp functional assay, was studied in all cell lines. This assay was performed by incubating cells with Rh123 and determining Rh123 accumulation by measuring its fluorescence. The maximum load of Rh123 (FMAX) was quantified at the end of treatment harvesting the cells and storing them at 4° C. to prevent any active Rh123 efflux. The P-gp drug efflux was allowed incubating Rh123-loaded cells in fresh new medium Rh123-free for 3 hours at 37° C. After this incubation, residual fluorescence (FRES) was measured and compared to FMAX.

[3] = target: T1, human A3 adenosine receptor (Homo sapiens, UniProt P0DMS8); experiment: Binding affinity to A3 adenosine receptor in A375 cells
T1 construct: endogenous in cells; host or cells: A375 human melanoma cells (ATCC)
T1 sequence (P0DMS8 1-318): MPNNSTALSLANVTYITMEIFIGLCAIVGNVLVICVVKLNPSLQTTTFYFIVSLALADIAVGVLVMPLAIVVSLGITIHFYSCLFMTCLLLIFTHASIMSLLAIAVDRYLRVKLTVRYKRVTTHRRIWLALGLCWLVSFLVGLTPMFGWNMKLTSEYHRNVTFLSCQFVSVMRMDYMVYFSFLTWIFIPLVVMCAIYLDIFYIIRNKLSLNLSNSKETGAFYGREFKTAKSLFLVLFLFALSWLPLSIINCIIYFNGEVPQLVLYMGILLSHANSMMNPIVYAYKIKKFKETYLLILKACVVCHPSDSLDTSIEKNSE

Sequence of P-gp (P08183 whole entry): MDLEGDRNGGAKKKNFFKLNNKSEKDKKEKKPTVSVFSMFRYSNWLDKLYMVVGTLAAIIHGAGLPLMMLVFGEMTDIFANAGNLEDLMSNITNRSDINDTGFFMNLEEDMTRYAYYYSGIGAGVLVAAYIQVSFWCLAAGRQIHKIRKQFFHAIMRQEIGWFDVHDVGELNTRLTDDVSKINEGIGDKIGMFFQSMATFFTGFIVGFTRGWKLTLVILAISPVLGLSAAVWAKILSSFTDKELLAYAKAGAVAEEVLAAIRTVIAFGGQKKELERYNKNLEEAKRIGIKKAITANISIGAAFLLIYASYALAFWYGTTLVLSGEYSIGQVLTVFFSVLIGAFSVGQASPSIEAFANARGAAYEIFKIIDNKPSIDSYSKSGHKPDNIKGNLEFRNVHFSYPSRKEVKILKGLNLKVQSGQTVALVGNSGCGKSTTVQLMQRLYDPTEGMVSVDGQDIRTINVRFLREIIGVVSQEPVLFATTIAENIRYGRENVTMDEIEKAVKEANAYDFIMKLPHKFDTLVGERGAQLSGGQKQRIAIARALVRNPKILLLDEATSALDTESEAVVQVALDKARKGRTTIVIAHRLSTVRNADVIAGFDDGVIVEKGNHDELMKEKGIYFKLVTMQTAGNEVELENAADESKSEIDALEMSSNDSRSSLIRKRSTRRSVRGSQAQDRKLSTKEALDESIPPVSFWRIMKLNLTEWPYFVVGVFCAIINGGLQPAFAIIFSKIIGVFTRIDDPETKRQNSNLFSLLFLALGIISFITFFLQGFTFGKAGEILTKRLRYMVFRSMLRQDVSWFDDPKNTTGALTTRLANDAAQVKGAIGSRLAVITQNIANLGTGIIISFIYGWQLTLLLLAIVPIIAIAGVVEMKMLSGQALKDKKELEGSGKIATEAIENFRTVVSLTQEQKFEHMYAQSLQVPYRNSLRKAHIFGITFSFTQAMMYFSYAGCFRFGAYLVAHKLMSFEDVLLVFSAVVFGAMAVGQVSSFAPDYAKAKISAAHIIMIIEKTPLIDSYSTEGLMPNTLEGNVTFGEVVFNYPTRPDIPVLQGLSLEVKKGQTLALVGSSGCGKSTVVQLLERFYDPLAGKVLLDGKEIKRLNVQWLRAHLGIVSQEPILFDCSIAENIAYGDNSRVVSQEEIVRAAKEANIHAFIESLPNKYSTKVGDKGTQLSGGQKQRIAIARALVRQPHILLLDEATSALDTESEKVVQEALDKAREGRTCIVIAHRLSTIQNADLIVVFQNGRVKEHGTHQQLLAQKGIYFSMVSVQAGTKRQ

CNC(=O)[C@H]1O[C@@H](n2cnc3c(NCc4cccc(I)c4)nc(Cl)nc32)[C@H](O)[C@@H]1O [Cl-IB-MECA]
EC50 (HIF-1α; A375, hypoxia 4 hours, read-out: EC50, HIF-1α protein accumulation): 10.6 ± 1.2 nM
HIF-1α protein expression (HIF-1α; U2OS osteosarcoma): significant increase
HIF-1α protein expression (HIF-1α; U87MG glioblastoma): significant increase
HIF-1α protein expression (HIF-1α; human keratinocytes NCTC 2544): significant increase
phosphorylation of p44 and p42 (p44/p42 MAPK): induced
phosphorylation of p38 MAPK (p38 MAPK): increased the phosphorylation of p38 MAPK in a dose-dependent manner
colony formation, % of DMSO control (A375 cells [1]; 10 μM alone, colonies counted after 7 days): 130%
colony formation, % of DMSO control (A375 cells [1]; 10 μM combined with paclitaxel (0.75 μg/ml), 7 days): 85%
fold increase of HIF-1α mRNA accumulation vs untreated cells (HIF-1α mRNA; 10 nM): 1.13±0.10 fold
fold increase of HIF-1α mRNA accumulation vs untreated cells (HIF-1α mRNA; 100 nM): 1.25±0.15 fold
fold increase of HIF-1α mRNA accumulation vs untreated cells (HIF-1α mRNA; 1 μM): 1.19±0.13 fold

CC(=O)O[C@H]1C(=O)[C@@]2(C)[C@H]([C@H](OC(=O)c3ccccc3)[C@]3(O)C[C@H](OC(=O)[C@H](O)[C@@H](NC(=O)c4ccccc4)c4ccccc4)C(C)=C1C3(C)C)[C@]1(OC(C)=O)CO[C@@H]1C[C@@H]2O [paclitaxel]
ECMAX (concentration exerting maximal apoptosis, sub-G1) (A375 cells [2]; DMSO (no antagonist)): 6.00 ± 0.63 ng/mL
EC50 (A375 cells [2]; 24 h, DMSO (no antagonist), read-out: EC50 (G2/M accumulation)): 16.6 ± 2 ng/mL
colony formation, % of DMSO control (A375 cells [1]; paclitaxel (0.75 μg/ml) alone, 7 days): 64%
IC50 (Human Melanoma A375; + IL-11 (5 μg/ml)): 0.00046 µg/mL
IC50 (Human Melanoma A375; + MRE3008F20 (10 μg/ml)): 0.00059 µg/mL
EC50 (PBMC blasts): 5.3 ± 0.6 ng/mL

CCCCn1cc2c(nc(NC(=O)Nc3ccccc3)n3nc(-c4ccco4)nc23)n1 [MRE 3062F20, 5-N-(4-phenyl-carbumoyl)amino-8-butyl-2(2furyl)-pyrazolo-[4,3e]-1,2,4-triazolo[1,5-c]pyrimidine]
EC50 (A375 cells [2]; antagonist dose inducing 50% of the enhancing activity to vindesine (1 nM), G2/M accumulation, read-out: SEC50): 430 ± 40 nM
% of Rh123 Negative Cells (cells expressing P-gp activity) (P-gp): 1.0 ± 0.2%
Ki [3]: 2.3 ± 0.2 nM

Reference: US20060204502A1 (priority 2004, published 2006)
